From PMC5655388, “Nicotinamide-based diamides derivatives as potential cytotoxic agents: synthesis and biological evaluation” (Chemistry Central Journal, 2017) come the findings set out here.

Values after ≈ are worked out from the molar mass of the structure shown.

Data set [1] concerns NCI-H460 (Human large cell lung cancer cell line). The data set can be described thus: MTT in vitro cytotoxicity assay, NCI-H460. The conditions noted are these: for IC50: Homo sapiens, NCI-H460 cells, MTT assay, mean ± SD; for Cytotoxic (inhibitory) activity at single concentration, NCI-H460: 40 µg/mL, preliminary screen (Fig. 4), result in words. It counts as cell-based. The protocol: (§1) All newly prepared nicotinamide-based diamides derivatives 4a–k and several similar diamides 4l–o were evaluated for their in vitro cytotoxic effects against NCI-H460 (Human large cell lung cancer cell line), A549 (Human lung cancer cell line), NCI-H1975 (Human lung cancer cell line), HL-7702 (Human normal liver cells), and MDCK (Madin-Darby canine kidney cells) cell lines by the modified MTT (3-(4,5-dimethylthiazol-2-yl)-2,5-diphenyl tetrazolium bromide) assay using 5-FU (5-Fluorouracil) as a positive control.
(§2) The in vitro cytotoxicity of the synthesized compounds against different human lung cancer cell lines (NCI-H460, A549, NCI-H1975) and normal cells (HL-7702 and MDCK) were measured with the 3-(4,5-dimethylthiazol-2-yl)-2,5-diphenyl tetrazolium bromide (MTT) assay. All the data of the experiment were analyzed with SPSS software, and the 50% inhibitory concentrations (IC50) of each compound for the different cell lines were determined. A control was run for each test, and all assays were performed in triplicate on three independent experiments, and measurement data were expressed as the mean ± SD.

Data set [2] relates to A549 (Human lung cancer cell line). As to the kind of experiment: MTT in vitro cytotoxicity assay, A549. It counts as cell-based. The conditions noted are these: for IC50: Homo sapiens, A549 cells, MTT assay, mean ± SD; for Cytotoxic (inhibitory) activity at single concentration, A549: 40 µg/mL, preliminary screen (Fig. 4), result in words. The protocol:
as §1, §2
For orientation: Tetrazolium assays rely on reduction of a dye to a coloured formazan, in cell work by metabolically active cells.

Data set [3] concerns NCI-H1975 (Human lung cancer cell line). As to the kind of experiment: MTT in vitro cytotoxicity assay, NCI-H1975. The data set is classed as cell-based. Particulars: for IC50: Homo sapiens, NCI-H1975 cells, MTT assay, mean ± SD; for Cytotoxic (inhibitory) activity at single concentration, NCI-H1975: 40 µg/mL, preliminary screen (Fig. 4), result in words. The protocol: as §1, §2

The nature of data set [4]: MTT in vitro cytotoxicity assay, HL-7702 normal cells. It counts as cell-based. The conditions noted are these: human, HL-7702 normal liver cells, mean ± SD. The protocol: as §1, §2
The nature of data set [5]: MTT in vitro cytotoxicity assay, MDCK normal cells. The data set is classed as cell-based, canine. Particulars: dog, MDCK normal kidney cells, mean ± SD. The protocol: as §1, §2

Usually IC50 stands for the concentration at which inhibition is half-maximal. Lower therefore signals greater potency.

Turning to `NC(=O)c1cccnc1NC(=O)c1ccccc1Nc1cccc(C(F)(F)F)c1` [4a, 2-(2-((3-(Trifluoromethyl)phenyl)amino)benzamido)nicotinamide], the half-maximal inhibitory concentration (IC50) in data set [1], in data set [2], in data set [3], in data set [4] and in data set [5] was greater than 40 µg/mL in each case.
For `CNC(=O)c1cccnc1NC(=O)c1ccccc1Nc1cccc(C(F)(F)F)c1` [4b, N-Methyl-2-(2-((3-(trifluoromethyl)phenyl)amino)benzamido)nicotinamide], the IC50 in data set [1] was 36.7 ± 2.8 µg/mL (≈ 88.5 µM); in data set [2], greater than 40 µg/mL; in data set [3], greater than 40 µg/mL; in data set [4], greater than 40 µg/mL; in data set [5], greater than 40 µg/mL.
As to `CC(O)CNC(=O)c1cccnc1NC(=O)c1ccccc1Nc1cccc(C(F)(F)F)c1` (centres unmarked) [4c, N-(2-Hydroxypropyl)-2-(2-((3-(trifluoromethyl)phenyl)amino)benzamido)nicotinamide], the “Cytotoxic (inhibitory) activity at single concentration, NCI-H460” value (shortened to “Cytotoxic (inhibitory) activity … NCI-H460”) in data set [1] is listed as “significant inhibitory activities”. The IC50 was 20.6 ± 1.37 µg/mL (≈ 45 µM) in data set [1]; 26.3 ± 3.22 µg/mL (≈ 57.4 µM) in data set [2]; 27.2 ± 2.76 µg/mL (≈ 59.4 µM) in data set [3]; 19.7 ± 0.45 µg/mL (≈ 43 µM) in data set [4]; 17 ± 0.84 µg/mL (≈ 37 µM) in data set [5]. Also, the “Cytotoxic (inhibitory) activity at single concentration, A549” value (from here on “Cytotoxic (inhibitory) activity … A549”) in data set [2] is listed as “significant inhibitory activities”. For the same compound, in data set [3], the “Cytotoxic (inhibitory) activity at single concentration, NCI-H1975” value (“Cytotoxic (inhibitory) activity … NCI-H1975” for short) is given as “significant inhibitory activities”.
As for `CC(=O)CNC(=O)c1cccnc1NC(=O)c1ccccc1Nc1cccc(C(F)(F)F)c1` [4d, N-(2-Oxopropyl)-2-(2-((3-(trifluoromethyl)phenyl)amino)benzamido)nicotinamide], the “Cytotoxic (inhibitory) activity … NCI-H460” value in data set [1] is on record as “significant inhibitory activities”. For the same compound, the IC50 turned out to be 4.07 ± 1.3 µg/mL (≈ 8.92 µM) in data set [1]; 13.1 ± 2.45 µg/mL (≈ 28.7 µM) in data set [2]; 12.8 ± 1.59 µg/mL (≈ 28.1 µM) in data set [3]; 26.9 ± 0.95 µg/mL (≈ 58.9 µM) in data set [4]; 13.4 ± 0.29 µg/mL (≈ 29.5 µM) in data set [5]. For the same compound, in data set [2], the “Cytotoxic (inhibitory) activity … A549” value was “significant inhibitory activities”. In addition, the “Cytotoxic (inhibitory) activity … NCI-H1975” value in data set [3] was “significant inhibitory activities”.
In the case of `Cc1cc(Cl)cc(C(N)=O)c1NC(=O)c1cccnc1Nc1cccc(C(F)(F)F)c1` [4e, N-(2-Carbamoyl-4-chloro-6-methylphenyl)-2-((3-(trifluoromethyl)phenyl)amino)nicotinamide], the concentration for half-maximal inhibition (IC50) in data set [1], in data set [2], in data set [3], in data set [4] and in data set [5] was greater than 40 µg/mL throughout. Moreover, the “Cytotoxic (inhibitory) activity … A549” value in data set [2] is given as “selective cytotoxicity”.
On to `CNC(=O)c1cc(Cl)cc(C)c1NC(=O)c1cccnc1Nc1cccc(C(F)(F)F)c1` [4f, N-(4-Chloro-2-methyl-6-(methylcarbamoyl)phenyl)-2-((3-(trifluoromethyl)phenyl)amino)nicotinamide], for which the IC50 in data set [1], in data set [2], in data set [3], in data set [4] and in data set [5] was greater than 40 µg/mL throughout.
`NC(=O)c1cccnc1NC(=O)c1cccnc1Nc1cccc(C(F)(F)F)c1` [4g, N-(3-Carbamoylpyridin-2-yl)-2-((3-(trifluoromethyl)phenyl)amino)nicotinamide]: the “Cytotoxic (inhibitory) activity … NCI-H460” value in data set [1] is given as “significant inhibitory activities”. The IC50 turned out to be 9.17 ± 2.02 µg/mL (≈ 22.8 µM) in data set [1]; 20.1 ± 0.48 µg/mL (≈ 50.1 µM) in data set [2]; 10.8 ± 2.22 µg/mL (≈ 27 µM) in data set [3]; 9.86 ± 0.34 µg/mL (≈ 24.6 µM) in data set [4]; 13 ± 1.27 µg/mL (≈ 32.5 µM) in data set [5]. Besides, in data set [2], the “Cytotoxic (inhibitory) activity … A549” value is on record as “significant inhibitory activities”. The “Cytotoxic (inhibitory) activity … NCI-H1975” value in data set [3] is “significant inhibitory activities”.
Turning to `CNC(=O)c1cccnc1NC(=O)c1cccnc1Nc1cccc(C(F)(F)F)c1` [4h, N-Methyl-2-(2-((3-(trifluoromethyl)phenyl)amino)nicotinamido)nicotinamide], the “Cytotoxic (inhibitory) activity … NCI-H460” value in data set [1] was “significant inhibitory activities”. Moreover, the 50% inhibitory concentration (IC50) in data set [1] worked out at 9.31 ± 2.66 µg/mL (≈ 22.4 µM); in data set [2], 17.2 ± 3.4 µg/mL (≈ 41.4 µM); in data set [3], 12.4 ± 2.52 µg/mL (≈ 29.9 µM); in data set [4], 11.6 ± 2.08 µg/mL (≈ 28 µM); in data set [5], 11.1 ± 0.24 µg/mL (≈ 26.6 µM). In data set [2], the “Cytotoxic (inhibitory) activity … A549” value is given as “significant inhibitory activities”. In addition, the “Cytotoxic (inhibitory) activity … NCI-H1975” value in data set [3] is recorded as “significant inhibitory activities”.
Regarding `CC(O)CNC(=O)c1cccnc1NC(=O)c1cccnc1Nc1cccc(C(F)(F)F)c1` (centres unmarked) [4i, N-(2-Hydroxypropyl)-2-(2-((3-(trifluoromethyl)phenyl)amino)nicotinamido)nicotinamide], the “Cytotoxic (inhibitory) activity … NCI-H460” value in data set [1] is “significant inhibitory activities”. For the same compound, the half-inhibitory concentration (IC50) in data set [1] amounted to 13.1 ± 4.49 µg/mL (≈ 28.5 µM); in data set [2], 16.5 ± 3.53 µg/mL (≈ 36 µM); in data set [3], 9.15 ± 1.64 µg/mL (≈ 19.9 µM); in data set [4] it was 14.5 ± 2.19 µg/mL (≈ 31.6 µM); in data set [5], 11.62 ± 0.06 µg/mL (≈ 25.3 µM). In addition, the “Cytotoxic (inhibitory) activity … A549” value in data set [2] is reported as “significant inhibitory activities”. For the same compound, the “Cytotoxic (inhibitory) activity … NCI-H1975” value in data set [3] is given as “significant inhibitory activities”.
For `NC(=O)c1cc2ccccc2cc1NC(=O)c1cccnc1Nc1cccc(C(F)(F)F)c1` [4j, N-(3-Carbamoylnaphthalen-2-yl)-2-((3-(trifluoromethyl)phenyl)amino)nicotinamide], the IC50 in data set [1] turned out to be 38.4 ± 3.95 µg/mL (≈ 85.3 µM); in data set [2], 24.8 ± 3 µg/mL (≈ 55 µM); in data set [3], 25.2 ± 3.35 µg/mL (≈ 55.9 µM); in data set [4], 18.1 ± 1.63 µg/mL (≈ 40.2 µM); in data set [5], 14.3 ± 0.66 µg/mL (≈ 31.7 µM).
`CNC(=O)c1cc2ccccc2cc1NC(=O)c1cccnc1Nc1cccc(C(F)(F)F)c1` [4k, N-(3-(Methylcarbamoyl)naphthalen-2-yl)-2-((3-(trifluoromethyl)phenyl)amino)nicotinamide]: the half-maximal inhibitory concentration (IC50) in data set [1] is greater than 40 µg/mL; in data set [2], 35.3 ± 2.19 µg/mL (≈ 76 µM); in data set [3], greater than 40 µg/mL; in data set [4], greater than 40 µg/mL; in data set [5] it was greater than 40 µg/mL. Also, the “Cytotoxic (inhibitory) activity … A549” value in data set [2] is “selective cytotoxicity”.
Regarding `Cc1cc(Cl)cc(C(N)=O)c1NC(=O)c1ccccc1Nc1cccc(C(F)(F)F)c1` [4l, 5-Chloro-3-methyl-2-(2-((3-(trifluoromethyl)phenyl)amino)benzamido)benzamide], the IC50 in data set [1], in data set [2], in data set [3], in data set [4] and in data set [5] was greater than 40 µg/mL each time. The “Cytotoxic (inhibitory) activity … A549” value in data set [2] was “selective cytotoxicity”.
With `CNC(=O)c1cc(Cl)cc(C)c1NC(=O)c1ccccc1Nc1cccc(C(F)(F)F)c1` [4m, 5-Chloro-N,3-dimethyl-2-(2-((3-(trifluoromethyl)phenyl)amino)benzamido)benzamide], the “Cytotoxic (inhibitory) activity … NCI-H460” value in data set [1] is given as “good inhibition activities”. Also, the concentration for half-maximal inhibition (IC50) in data set [1] was 6.85 ± 0.23 µg/mL (≈ 14.8 µM); in data set [2] it was 6.77 ± 0.86 µg/mL (≈ 14.7 µM); in data set [3], 10.8 ± 1.02 µg/mL (≈ 23.4 µM); in data set [4] it was 21.4 ± 1.79 µg/mL (≈ 46.4 µM); in data set [5], 21.2 ± 3.59 µg/mL (≈ 46 µM). Further, the “Cytotoxic (inhibitory) activity … A549” value in data set [2] was “good inhibition activities”. In data set [3], the “Cytotoxic (inhibitory) activity … NCI-H1975” value is “good inhibition activities”.
As to `NC(=O)c1cc2ccccc2cc1NC(=O)c1ccccc1Nc1cccc(C(F)(F)F)c1` [4n, 3-(2-((3-(Trifluoromethyl)phenyl)amino)benzamido)-2-naphthamide], the 50% inhibitory concentration (IC50) in data set [1] was greater than 40 µg/mL; in data set [2], greater than 40 µg/mL; in data set [3], greater than 40 µg/mL; in data set [4], greater than 40 µg/mL; in data set [5], 14.44 ± 0.01 µg/mL (≈ 32.1 µM).
Turning to `CNC(=O)c1cc2ccccc2cc1NC(=O)c1ccccc1Nc1cccc(C(F)(F)F)c1` [4o, N-Methyl-3-(2-((3-(trifluoromethyl)phenyl)amino)benzamido)-2-naphthamide], the 50% inhibitory concentration (IC50) in data set [1], in data set [2], in data set [3], in data set [4] and in data set [5] was greater than 40 µg/mL each time.
`O=c1[nH]cc(F)c(=O)[nH]1` [5-FU, 5-Fluorouracil, reference compound]: the IC50 in data set [1] was 8.02 ± 2.35 µg/mL (≈ 61.7 µM); in data set [2] it was 37.5 ± 3.25 µg/mL (≈ 288 µM); in data set [3], 24.8 ± 5.8 µg/mL (≈ 190 µM); in data set [4], 11.3 ± 1.67 µg/mL (≈ 87.3 µM); in data set [5], 8.65 ± 0.81 µg/mL (≈ 66.5 µM).
